Laboratory results as given in article PMC7309225, “Synthesis, Biodistribution, and Radiation Dosimetry of a Novel mGluR5 Radioligand: ^18F-AZD9272” (ACS Chemical Neuroscience, 2020).
“And” between values parts separate entries of the source, which are not always exact repeats. Identical values can stand only once.

Tests used:
[1] = Radiometabolite analysis of plasma by radio-HPLC during PET; format: in vivo, cynomolgus monkey
Procedure: An automated blood sampling system (ABSS) was used to measure the continuous radioactivity for the first 3 min after the radioligand injection. Then, blood sampling was performed manually for the measurement of metabolism and radioactivity at 5, 15, 30, 60, 90, and 120 min after the injection. A reversed-phase radio-HPLC method was used to determine the amount of unchanged ^18F-AZD9272 and its radioactive metabolites in NHP plasma.[35]

[2] = Whole body PET and radiation dosimetry (OLINDA/EXM 1.1); format: in vivo, cynomolgus monkey; conditions: for Estimated radiation dose: human estimate, adult male model
Procedure: Two female cynomolgus monkeys (NHP3: 7420 g and NHP4: 6360 g) were used in this study. Anesthesia was induced by intramuscular injection of ketamine hydrochloride (approximately 10 mg/kg) at AFL and maintained by intravenous infusion of ketamine (4 mg/kg/h) and xylazine (0.4 mg/kg/h) with a pump. The body of the NHP was immobilized using a vacuum pad. Body temperature was maintained by using a Bair Hugger system (model 505, Arizant Healthcare, MN) and monitored with an esophageal thermometer. Heart rate, blood pressure, respiratory rate, and oxygen saturation were continuously monitored throughout the experiments. Fluid balance was maintained by continuous infusion of saline.
Whole-body PET scans were conducted using a GE Discovery PET/CT 710 system (GE Healthcare, Waukesha, WI). One low-dose CT scan was performed before intravenous administration of ^18F-AZD9272 for attenuation correction. Then five series of PET acquisitions, each covering five axial fields of view (AFOV), were conducted. The five PET series consisted of two 20 s × 5 AFOV, three 40 s × 5 AFOV, three 80 s × 5 AFOV, three 160 s × 5 AFOV, and eight 240 s × 5 AFOV. The total duration of the whole-body PET measurement was around 4 h. PET images were reconstructed with a 3D ordered-subset expectation maximization (OSEM) algorithm with three iterations and 18 subsets, including the time-of-flight information (VUE Point FX) and the point spread function correction (Sharp IR). A 2D Gaussian filter with 5.5 mm cutoff was used.
ROIs were drawn for the brain, heart, liver, lung, kidney, gall bladder, bone (lumbar vertebrae), urinary bladder, stomach, small intestine, spleen, and pancreas with the help of the CT images for anatomic landmarks. The time–activity curve was expressed as the percentage of the injected dose (%ID) calculated as follows: decay-corrected radioactivity (Bq/cc) × ROI volume (cc)/injected dose (Bq) × 100.
Estimates of the absorbed radiation dose in humans were calculated with OLINDA/EXM 1.1 (Organ Level INternal Dose Assessment Code) software, using the adult male (70 kg) reference model.[36] The fractional uptake in NHP organs was assumed to be equal to the uptake in human organs.

N#Cc1cc(F)cc(-c2nc(-c3ccc([18F])cn3)no2)c1 [^18F-AZD9272, 3-fluoro-5-(3-(5-[^18F]fluoropyridin-2-yl)-1,2,4-oxadiazol-5-yl)benzonitrile]
Parent compound in plasma ([1]; 5 min after injection): approximately 95%
Percentage of parent radioligand in plasma ([1]; 120 min after injection, individual animals (n = 2)): 59% and 64%
Estimated radiation dose ([2]; LLI wall, NHP3): 26.8 μSv/MBq
Estimated radiation dose ([2]; LLI wall, NHP4): 27.9 μSv/MBq
Estimated radiation dose ([2]; LLI wall, mean): 27.4 μSv/MBq
Whole body organ uptake (PET) ([2]; NHP whole body): High uptakes were seen in liver and small intestine, followed by brain and kidney
Estimated radiation dose ([2]; ULI wall, NHP3): 65.7 μSv/MBq
Estimated radiation dose ([2]; ULI wall, NHP4): 69.4 μSv/MBq
Estimated radiation dose ([2]; ULI wall, mean): 67.6 μSv/MBq
Estimated radiation dose ([2]; adrenals, NHP3): 14.6 μSv/MBq
Estimated radiation dose ([2]; adrenals, NHP4): 14.1 μSv/MBq
Estimated radiation dose ([2]; adrenals, mean): 14.4 μSv/MBq
Estimated radiation dose ([2]; brain, NHP3): 13.0 μSv/MBq
Estimated radiation dose ([2]; brain, NHP4): 17.4 μSv/MBq
Estimated radiation dose ([2]; brain, mean): 15.2 μSv/MBq
Estimated radiation dose ([2]; breasts, NHP3): 8.0 μSv/MBq
Estimated radiation dose ([2]; breasts, NHP4): 7.9 μSv/MBq
Estimated radiation dose ([2]; breasts, mean): 7.9 μSv/MBq
Estimated radiation dose ([2]; effective dose, NHP3): 17.4 μSv/MBq
Estimated radiation dose ([2]; effective dose, NHP4): 17.4 μSv/MBq
Estimated radiation dose ([2]; effective dose, mean): 17.4 μSv/MBq
Estimated radiation dose ([2]; gallbladder wall, NHP3): 21.3 μSv/MBq
Estimated radiation dose ([2]; gallbladder wall, NHP4): 21.1 μSv/MBq
Estimated radiation dose ([2]; gallbladder wall, mean): 21.2 μSv/MBq
Estimated radiation dose ([2]; heart wall, NHP3): 17.5 μSv/MBq
Estimated radiation dose ([2]; heart wall, NHP4): 19.0 μSv/MBq
Estimated radiation dose ([2]; heart wall, mean): 18.3 μSv/MBq
Human radiation dose estimate, upper large intestine (ULI) wall ([2]; highest-dose organ): around 0.068 mSv/MBq
Radioactivity that can be injected to humans ([2]; if the limit is 10 mSv for the total radiation exposure): 570 MBq
Estimated radiation dose ([2]; kidneys, NHP3): 42.3 μSv/MBq
Estimated radiation dose ([2]; kidneys, NHP4): 29.6 μSv/MBq
Estimated radiation dose ([2]; kidneys, mean): 36.0 μSv/MBq
Estimated radiation dose ([2]; liver, NHP3): 47.0 μSv/MBq
Estimated radiation dose ([2]; liver, NHP4): 45.7 μSv/MBq
Estimated radiation dose ([2]; liver, mean): 46.4 μSv/MBq
Estimated radiation dose ([2]; lungs, NHP3): 12.7 μSv/MBq
Estimated radiation dose ([2]; lungs, NHP4): 11.8 μSv/MBq
Estimated radiation dose ([2]; lungs, mean): 12.3 μSv/MBq
Human radiation dose estimate, most organs ([2]; most organs): 0.01–0.02 mSv/MBq
Estimated radiation dose ([2]; muscle, NHP3): 10.1 μSv/MBq
Estimated radiation dose ([2]; muscle, NHP4): 10.0 μSv/MBq
Estimated radiation dose ([2]; muscle, mean): 10.1 μSv/MBq
Estimated radiation dose ([2]; osteogenic cells, NHP3): 14.5 μSv/MBq
Estimated radiation dose ([2]; osteogenic cells, NHP4): 14.5 μSv/MBq
Estimated radiation dose ([2]; osteogenic cells, mean): 14.5 μSv/MBq
Estimated radiation dose ([2]; ovaries, NHP3): 18.2 μSv/MBq
Estimated radiation dose ([2]; ovaries, NHP4): 18.6 μSv/MBq
Estimated radiation dose ([2]; ovaries, mean): 18.4 μSv/MBq
Estimated radiation dose ([2]; pancreas, NHP3): 16.4 μSv/MBq
Estimated radiation dose ([2]; pancreas, NHP4): 15.4 μSv/MBq
Estimated radiation dose ([2]; pancreas, mean): 15.9 μSv/MBq
Estimated radiation dose ([2]; red marrow, NHP3): 10.7 μSv/MBq
Estimated radiation dose ([2]; red marrow, NHP4): 10.7 μSv/MBq
Estimated radiation dose ([2]; red marrow, mean): 10.7 μSv/MBq
Estimated radiation dose ([2]; skin, NHP3): 7.4 μSv/MBq
Estimated radiation dose ([2]; skin, NHP4): 7.4 μSv/MBq
Estimated radiation dose ([2]; skin, mean): 7.4 μSv/MBq
Estimated radiation dose ([2]; small intestine, NHP3): 58.9 μSv/MBq
Estimated radiation dose ([2]; small intestine, NHP4): 62.1 μSv/MBq
Estimated radiation dose ([2]; small intestine, mean): 60.5 μSv/MBq
Estimated radiation dose ([2]; spleen, NHP3): 9.6 μSv/MBq
Estimated radiation dose ([2]; spleen, NHP4): 8.4 μSv/MBq
Estimated radiation dose ([2]; spleen, mean): 9.0 μSv/MBq
Estimated radiation dose ([2]; stomach wall, NHP3): 13.2 μSv/MBq
Estimated radiation dose ([2]; stomach wall, NHP4): 13.1 μSv/MBq
Estimated radiation dose ([2]; stomach wall, mean): 13.2 μSv/MBq
Estimated radiation dose ([2]; testes, NHP3): 8.7 μSv/MBq
Estimated radiation dose ([2]; testes, NHP4): 8.6 μSv/MBq
Estimated radiation dose ([2]; testes, mean): 8.7 μSv/MBq
Estimated radiation dose ([2]; thymus, NHP3): 9.7 μSv/MBq
Estimated radiation dose ([2]; thymus, NHP4): 9.6 μSv/MBq
Estimated radiation dose ([2]; thymus, mean): 9.6 μSv/MBq
Estimated radiation dose ([2]; thyroid, NHP3): 9.1 μSv/MBq
Estimated radiation dose ([2]; thyroid, NHP4): 9.1 μSv/MBq
Estimated radiation dose ([2]; thyroid, mean): 9.1 μSv/MBq
Estimated radiation dose ([2]; total body, NHP3): 12.2 μSv/MBq
Estimated radiation dose ([2]; total body, NHP4): 12.1 μSv/MBq
Estimated radiation dose ([2]; total body, mean): 12.2 μSv/MBq
Estimated radiation dose ([2]; urinary bladder wall, NHP3): 11.3 μSv/MBq
Estimated radiation dose ([2]; urinary bladder wall, NHP4): 11.4 μSv/MBq
Estimated radiation dose ([2]; urinary bladder wall, mean): 11.4 μSv/MBq
Estimated radiation dose ([2]; uterus, NHP3): 16.1 μSv/MBq
Estimated radiation dose ([2]; uterus, NHP4): 16.3 μSv/MBq
Estimated radiation dose ([2]; uterus, mean): 16.2 μSv/MBq
